Laboratory results from publication PMC7391080 (2020).
Several values for one entry are separate records, joined by “and”; a condition that tells them apart may be missing. Equal entries are not always repeated.

Tested on: Sap9
Assay: 6 ng/μL Sap9 in 2 mM sodium phosphate buffer
Details: 37 °C, up to 3 h

How did the fragment found turn out when DSHAKRHHGYKRKFHEKHHSHRGY was run?
The fragment found was 6–24, major and 7–24, major and 13–24, major and 14–24, major.
